{"source": "patent US20230256051A1", "about": "“MODIFIED KISSPEPTIN RECEPTOR AGONISTS FOR FATTY LIVER DISEASE” (priority 2020, published 2023)", "key": {"[1]": {"test_system": "HFD-fed C57BL6/J mice (mouse model of NAFLD)", "test": "Diet-induced (HFD) mouse model of NAFLD, TAK-448 infused by subcutaneous mini-osmotic pump", "format": "in vivo", "settings": "for liver steatosis / lipid accumulation (H&E, Oil Red O): 0.3 nmol/hour s.c. mini-osmotic pump, vs vehicle (PBS); for liver steatosis / lipid accumulation (H&E, Oil Red O) / insulin resistance / sensitivity (ITT) / glucose tolerance (GTT) / fasting glucose / body weight: 4 weeks; for insulin resistance / sensitivity (ITT) / glucose tolerance (GTT) / fasting glucose / body weight: 0.3 nmol/hour s.c. pump; for insulin resistance / sensitivity (ITT): 6 h fast, insulin 0.5 U/kg i.p.; for glucose tolerance (GTT): 12 h fast, D-glucose 1 g/kg i.p.; for liver triglycerides (TGs) / serum/blood glycerol: endpoint", "description": "Animals were treated for 4 weeks unless otherwise indicated and maintained on RD or HFD (total of 10 weeks). Blood glucose measurements were obtained via a small nick in the lateral tail vein using a glucometer (Bayer ContourTM). For glucose tolerance tests, mice were fasted for 12 hours and then injected intraperitoneally with D-glucose (1 g/kg). For the insulin tolerance tests, mice were fasted for 6 hours and then injected intraperitoneally with insulin (0.5 U/kg; Novo NordiskTM). Mice where individually housed in an 8-chamber Clinical Laboratory Animal Monitoring System (CLAMS) with controlled light and feeding. Carbon dioxide output, oxygen update, respiratory exchange ratio (RER), ambulatory movement, and feeding were measured over a 4-day period. Serum insulin levels were measured using the Ultra-Sensitive Mouse Insulin ELISA Kit (Crystal ChemTM). Serum glycerol levels were measured using the Glycerol Assay Kit (SigmaTM). Liver triglycerides were measured using the triglyceride quantification kit (MBLTM international Catalog # JM-K622-500). Free fatty acids were measured using the Free Fatty Acid Quantification Kit (SigmaTM, […]). ALT levels were measured using Liquid ALT (SGPT) Reagent set according to the manufacturer's instructions; cholesterol levels were measured using the Cholesterol set according to the manufacturer's instructions. Immunoblot assays were conducted according to known methods. Mouse liver tissue or primary hepatocytes were homogenized in RIPA lysis buffer containing protease inhibitors and centrifuged at 4° C.; the protein expression in lysates was analyzed by Western blot analysis. Protein was separated using SDS-PAGE and probed using the following antibodies: […] Mouse anti-β actin (1:5000, Thermo Fisher ScientificTM) or anti-vinculin (1:1000, Bio-RadTM) were used for loading control. Protein was then incubated for 1 hour in horseradish peroxidase (HRP)-conjugated rabbit (1:2500, Cell Signaling TechnologyTM) or mouse (1:2500, Cell Signaling TechnologyTM) secondary antibody. Blots were imaged by chemiluminescence with ChemiDocTM Touch imaging system (Bio-RadTM), SuperSignal and West Dura Extended Duration Substrate (Thermo ScientificTM). Protein levels were quantified using Image Lab Software (Bio-RadTM). Total RNA was extracted from cells using the Trizol method. Reverse transcription was done according to manufacturer's instructions using iScript RT Supermix (Bio-RadTM). Gene expression was determined using SYBR green real-time qPCR (RT-qPCR) as described previously using primers shown in Table 7, below. The following primers were purchased from BioRadTM (validated […] primers): Srebpl, Aqp3, Aqp9, Gpat2, Agpat2, Dgat1, Dgat2, Mogat1, Slc2a2, […]1, Sod1, Sod2, Gss, Ucp2, and Gpam. Il-13 was purchased from QiagenTM (QT00099554). Primers for Srebf1, Aqp3, Aqp9, Gpat2, Agpat2, Dgat1, Dgat2, Mogat1, Slc2a2, Lgpat1, Sod1, Sod2, Gss, Ucp2, and Gpam are pre-made and were purchased from BioRadTM. Liver tissue was immediately fixed in 10% neutral formalin after mice were euthanized. Tissue was processed for histology by the Research Pathology Services at Rutgers University. Livers were sectioned into 5 μm thick sections and stained with hematoxylin and eosin. Sections were examined by light microscopy for histopathological changes. C57BL/6J mice fed high fat diet (HFD) or control regular diet (RD) for 12 weeks (4-5/group). TAK-448 (TAK) or Vehicle (Veh i.e., PBS controls) were administered for 4 weeks using an ALZET mini-osmotic pump implanted subcutaneously. Steatosis is shown by hematoxylin and eosin stained mouse livers (lipid accumulation, small white droplets, arrowheads) and by Oil Red O staining of lipids (red dots) in control livers (FIG. 1A). This was prevented in the TAK-448 treated group (FIG. 1A). […]"}, "[2]": {"settings": "cited from earlier work"}, "[3]": {"test_system": "primary mouse hepatocytes", "test": "FFA-loaded isolated primary mouse hepatocytes treated with KP-10 or TAK", "settings": "KP 100 nM or TAK 3 nM; 150 µM palmitate and 150 µM oleate; wild-type hepatocytes; n=4", "protocol": "(n=4) * p < 0.05; One-way ANOVA followed by Dunnett’s post-hoc test.\nPrimary hepatocytes from mice were isolated according to known methods. Mice (wild-type, C57BL6) or LKO and littermate controls were anesthetized using a ketamine/xylazine mixture (Henry Schein™). The liver was cannulated via the hepatic portal vein and first perfused with 37° C. Kreb’s Ringer solution containing EGTA for 10 minutes. After the first wash, a second Kreb’s Ringer solution containing CaCl2 and LIBERASE (Roche™) was used until the liver was thoroughly perfused. Hepatocytes were filtered through a gauze mesh and resuspended in William’s Media E (Sigma™) with 10 % FBS (Sigma™), 200 nM dexamethasone (Sigma™), 5 mM pen/strep (Fisher™), 2 mM L-glutamine (Fisher™). Cells were plated at a density of 3 × 10^5 on 6-well collagen-coated plates (Sigma™). Hepatocytes were left to recover overnight and then were serum starved for 3 hours prior to experiments. For free fatty acid (FFA) loading, 150 µM oleic and 150 µM palmitic acid was conjugated with 2% BSA (0.3 mM)."}, "[4]": {"settings": "HFD livers, RT-qPCR, vs vehicle"}, "[5]": {"settings": "HFD livers, RT-qPCR, vs vehicle, listed as TAK"}, "[6]": {"settings": "HFD livers, western blot, vs vehicle"}, "[7]": {"settings": "HFD mice, vs vehicle, listed as TAK"}, "[8]": {"settings": "HFD mice, 4 weeks treatment, vs vehicle"}, "[9]": {"settings": "HFD mice, 4 weeks treatment, vs vehicle, listed as TAK"}, "[10]": {"settings": "HFD mice, 4 weeks treatment, vs vehicle, listed as TAK-488"}, "[11]": {"settings": "treated vs untreated mice, 4 weeks post treatment"}}, "note": "Entries after “also recorded” stand apart in the source; their conditions may differ."}
{"smiles": "CNC(=N)NCCC[C@H](NC(=O)[C@H](CC(C)C)NC(=O)NNC(=O)[C@H](Cc1ccccc1)NC(=O)[C@@H](NC(=O)[C@H](CC(N)=O)NC(=O)[C@@H]1C[C@@H](O)CN1C(=O)[C@@H](Cc1ccc(O)cc1)NC(C)=O)[C@@H](C)O)C(=O)N[C@@H](Cc1c[nH]c2ccccc12)C(N)=O.O=C(O)C(F)(F)F", "note": "[TAK-448]", "values": [{"measurement": "hepatic expression of PPARy, CD36 and MOGAT1", "setting": "[1]; HFD livers, RT-qPCR and western blot, vs vehicle, listed as TAK", "value": "significantly reduced; also recorded: inhibited"}, {"measurement": "Gpam expression in liver", "setting": "[1]; [4]", "value": "significantly reduced"}, {"measurement": "Lfabp1 and Gyk1 expression in liver", "setting": "[1]; [4]", "value": "not significant"}, {"measurement": "Srebf1 expression in liver", "setting": "[1]; [4]", "value": "not significant"}, {"measurement": "liver markers for oxidative stress (Ucp2, Gss)", "setting": "[1]; [4]", "value": "lower levels"}, {"measurement": "liver markers for fibrosis (Tgfb1, Timp1)", "setting": "[1]; [5]", "value": "lower levels; also recorded: reduction"}, {"measurement": "liver pro-inflammatory markers (Ip10, Mcp1)", "setting": "[1]; [5]", "value": "lower levels; also recorded: reduction"}, {"measurement": "Fasn expression in liver", "setting": "[1]; [6]", "value": "significant decrease"}, {"measurement": "phosphorylation of AMPK in liver", "setting": "[1]; [6]", "value": "induced phosphorylation"}, {"measurement": "liver steatosis / lipid accumulation (H&E, Oil Red O)", "setting": "[1]; HFD mice", "value": "prevented"}, {"measurement": "liver steatosis / lipid accumulation (H&E, Oil Red O)", "setting": "[1]; HFD mice, listed as TAK", "value": "protected against; also recorded: suppressed"}, {"measurement": "insulin resistance / sensitivity (ITT)", "setting": "[1]; HFD mice, vs vehicle", "value": "protected against; also recorded: prevented insulin resistance"}, {"measurement": "insulin resistance / sensitivity (ITT)", "setting": "[1]; [7]", "value": "insulin sensitive; also recorded: improved"}, {"measurement": "glucose tolerance (GTT)", "setting": "[1]; HFD mice, vs vehicle", "value": "prevented glucose intolerance"}, {"measurement": "glucose tolerance (GTT)", "setting": "[1]; [7]", "value": "glucose tolerant; also recorded: improved"}, {"measurement": "fasting glucose", "setting": "[1]; HFD mice, vs vehicle", "value": "prevented the rise"}, {"measurement": "body weight", "setting": "[1]; [7]", "value": "significantly lower; also recorded: prevented a gain"}, {"measurement": "fasting glucose", "setting": "[1]; [7]", "value": "lower"}, {"measurement": "body weight", "setting": "[1]; HFD mice, vs vehicle, listed as TAK-488", "value": "lowering"}, {"measurement": "food intake (CLAMS)", "setting": "[1]; HFD mice, 4 weeks post treatment, vs vehicle", "value": "without a change"}, {"measurement": "food intake (CLAMS)", "setting": "[1]; HFD mice, 4 weeks post treatment, vs vehicle, listed as TAK", "value": "without a change; also recorded: without changing"}, {"measurement": "food intake (CLAMS)", "setting": "[1]; HFD mice, 4 weeks post treatment, vs vehicle, listed as Takeda-488", "value": "no difference"}, {"measurement": "epididymal white adipose tissue (eWAT)", "setting": "[1]; [8]", "value": "significant decrease"}, {"measurement": "inguinal white adipose tissue (iWAT)", "setting": "[1]; [8]", "value": "significant decrease"}, {"measurement": "peripheral fat accumulation / adipose mass", "setting": "[1]; [8]", "value": "protected against"}, {"measurement": "serum ALT", "setting": "[1]; [8]", "value": "significantly lower"}, {"measurement": "serum/blood free fatty acids (FFA)", "setting": "[1]; [8]", "value": "prevented"}, {"measurement": "peripheral fat accumulation / adipose mass", "setting": "[1]; [9]", "value": "lowered"}, {"measurement": "serum TGs", "setting": "[1]; [9]", "value": "significant decrease; also recorded: reduced"}, {"measurement": "serum cholesterol", "setting": "[1]; [9]", "value": "significantly lower; also recorded: reduced"}, {"measurement": "serum/blood free fatty acids (FFA)", "setting": "[1]; [9]", "value": "significantly lower; also recorded: reduced"}, {"measurement": "peripheral fat accumulation / adipose mass", "setting": "[1]; [10]", "value": "lowering"}, {"measurement": "serum/blood free fatty acids (FFA)", "setting": "[1]; [10]", "value": "lowering"}, {"measurement": "liver triglycerides (TGs)", "setting": "[1]; [8]", "value": "prevented"}, {"measurement": "serum/blood glycerol", "setting": "[1]; [8]", "value": "prevented"}, {"measurement": "liver triglycerides (TGs)", "setting": "[1]; [9]", "value": "significant decrease"}, {"measurement": "serum/blood glycerol", "setting": "[1]; [9]", "value": "significantly lower"}, {"measurement": "liver triglycerides (TGs)", "setting": "[1]; [10]", "value": "lowering"}, {"measurement": "serum/blood glycerol", "setting": "[1]; [10]", "value": "lowering"}, {"measurement": "heat production (CLAMS)", "setting": "[1]; [11]", "value": "no differences"}, {"measurement": "respiratory exchange ratio (RER, CLAMS)", "setting": "[1]; [11]", "value": "no differences"}, {"measurement": "half-life in the blood", "setting": "[2]", "value": 4, "unit": "h"}, {"measurement": "TG accumulation in FFA loaded hepatocytes", "setting": "[3]", "value": "substantially decreased"}]}
